The record followed here is patent US8013156B2 (Exelixis, Inc., priority 2003, dated 2011).

The structures appear in SMILES notation.

The experiment deals with Tie-2 (Homo sapiens, UniProt Q02763). Put plainly: Tie-2 tyrosine kinase activity assay (luciferase/luciferin ATP consumption with pEY substrate, or 33P-ATP incorporation). It is filed as biochemical. Particulars: human enzyme Tie-2. Summed up:
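Values are IC50 categories (A <50 nM to D ≥10,000 nM), with Ki obtainable by fitting rates to a tight-binding model. Assay formats: 33P-ATP phosphate transfer to adsorbed generic substrate counted by scintillation, or luciferase-detected ATP depletion using pEY.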

Tie-2, sequence (Q02763 23-1124): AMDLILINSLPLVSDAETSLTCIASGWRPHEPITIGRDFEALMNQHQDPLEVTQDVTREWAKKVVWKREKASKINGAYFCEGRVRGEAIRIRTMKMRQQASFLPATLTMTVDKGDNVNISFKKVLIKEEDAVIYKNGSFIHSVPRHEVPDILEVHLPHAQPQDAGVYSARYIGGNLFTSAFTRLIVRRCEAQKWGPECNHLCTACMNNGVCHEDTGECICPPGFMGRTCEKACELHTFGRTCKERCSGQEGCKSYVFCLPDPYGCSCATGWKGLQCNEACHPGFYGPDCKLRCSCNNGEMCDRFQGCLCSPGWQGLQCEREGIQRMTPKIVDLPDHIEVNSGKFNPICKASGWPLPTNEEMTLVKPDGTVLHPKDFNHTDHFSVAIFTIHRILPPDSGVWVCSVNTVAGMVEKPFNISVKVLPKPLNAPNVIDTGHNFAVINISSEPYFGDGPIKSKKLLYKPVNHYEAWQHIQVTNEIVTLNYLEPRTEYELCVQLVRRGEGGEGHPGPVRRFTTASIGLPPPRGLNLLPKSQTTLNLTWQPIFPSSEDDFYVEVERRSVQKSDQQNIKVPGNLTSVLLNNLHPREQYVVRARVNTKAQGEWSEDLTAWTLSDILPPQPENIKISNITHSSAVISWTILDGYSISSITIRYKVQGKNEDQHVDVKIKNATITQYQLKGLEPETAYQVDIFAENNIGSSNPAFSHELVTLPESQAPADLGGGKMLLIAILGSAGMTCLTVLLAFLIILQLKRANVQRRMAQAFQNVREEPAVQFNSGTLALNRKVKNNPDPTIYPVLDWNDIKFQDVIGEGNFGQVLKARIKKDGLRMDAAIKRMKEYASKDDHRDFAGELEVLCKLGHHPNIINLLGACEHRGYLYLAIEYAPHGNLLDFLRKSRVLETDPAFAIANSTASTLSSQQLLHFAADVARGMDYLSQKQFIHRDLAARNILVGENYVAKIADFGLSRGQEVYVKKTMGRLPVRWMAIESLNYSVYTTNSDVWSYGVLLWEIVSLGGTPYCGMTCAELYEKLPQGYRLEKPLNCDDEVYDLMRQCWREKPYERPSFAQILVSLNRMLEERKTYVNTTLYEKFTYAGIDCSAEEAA

Consider `Nc1nccc(COc2cccnc2N2CCN(C(=O)N3CCCc4ccccc43)CC2)n1` [Example 219, 4-[({2-[4-(3,4-dihydroquinolin-1(2H)-ylcarbonyl)piperazin-1-yl]pyridin-3-yl}oxy)methyl]pyrimidin-2-amine], for which the IC50 was not below 10000 nM.

`CC(C)CNC(=O)N1CCN(c2ncccc2OCc2ccnc(N)n2)CC1` [Example 220, 4-(3-{[(2-aminopyrimidin-4-yl)methyl]oxy}pyridin-2-yl)-N-(2-methylpropyl)piperazine-1-carboxamide] yielded an IC50 not below 10000 nM. Then `CCc1cc(Cl)cc(NC(=O)N2CCN(c3nsnc3OCc3ccnc(N)n3)CC2)c1` [Example 221, 4-(4-{[(2-aminopyrimidin-4-yl)methyl]oxy}-1,2,5-thiadiazol-3-yl)-N-(3-chloro-5-ethylphenyl)piperazine-1-carboxamide], with less than 50 nM. `CCc1ccc(F)c(NC(=O)N2CCN(c3nsnc3OCc3ccnc(N)n3)CC2)c1` [Example 222, 4-(4-{[(2-aminopyrimidin-4-yl)methyl]oxy}-1,2,5-thiadiazol-3-yl)-N-(5-ethyl-2-fluorophenyl)piperazine-1-carboxamide]: the IC50 was 50 to 1000 nM.

Consider `Nc1nccc(COc2nsnc2N2CCN(C(=O)Nc3cc(Cl)cc(Cl)c3)CC2)n1` [Example 223, 4-(4-{[(2-aminopyrimidin-4-yl)methyl]oxy}-1,2,5-thiadiazol-3-yl)-N-(3,5-dichlorophenyl)piperazine-1-carboxamide], for which the IC50 lay in the range of 50 to 1000 nM. The compound `Nc1nccc(COc2nccnc2N2CCN(C(=O)Nc3ccccc3)CC2)n1` [Example 224, 4-(3-{[(2-aminopyrimidin-4-yl)methyl]oxy}pyrazin-2-yl)-N-phenylpiperazine-1-carboxamide] returned an IC50 of 50 to 1000 nM.

`Nc1nccc(COc2nccnc2N2CCN(C(=O)Nc3cc(C(F)(F)F)ccc3F)CC2)n1` [Example 225, 4-(3-{[(2-aminopyrimidin-4-yl)methyl]oxy}pyrazin-2-yl)-N-[2-fluoro-5-(trifluoromethyl)phenyl]piperazine-1-carboxamide] returned an IC50 of less than 50 nM. In turn, `CCc1cccc(NC(=O)N2CCN(c3nc(C)ccc3OCc3ccnc(N)n3)CC2)c1` [Example 227, 4-(3-{[(2-aminopyrimidin-4-yl)methyl]oxy}-6-methylpyridin-2-yl)-N-(3-ethylphenyl)piperazine-1-carboxamide] came in with a half-inhibitory concentration (IC50) of less than 50 nM. In turn, `Cc1ccc(OCc2ccnc(N)n2)c(N2CCN(C(=O)Nc3cc(C(F)(F)F)cc(C(F)(F)F)c3)CC2)n1` [Example 228, 4-(3-{[(2-aminopyrimidin-4-yl)methyl]oxy}-6-methylpyridin-2-yl)-N-[3,5-bis(trifluoromethyl)phenyl]piperazine-1-carboxamide] registered an IC50 of less than 50 nM.

For `Nc1nccc(COc2nccnc2N2CCN(C(=O)Nc3cccc(C(F)(F)F)c3)CC2)n1` [Example 229, 4-(3-{[(2-aminopyrimidin-4-yl)methyl]oxy}pyrazin-2-yl)-N-[3-(trifluoromethyl)phenyl]piperazine-1-carboxamide], the half-maximal inhibitory concentration (IC50) is less than 50 nM.

The compound `Nc1nccc(COc2nsnc2N2CCN(C(=O)Nc3ccccc3)CC2)n1` [Example 230, 4-(4-{[(2-aminopyrimidin-4-yl)methyl]oxy}-1,2,5-thiadiazol-3-yl)-N-phenylpiperazine-1-carboxamide] registered an IC50 not below 10000 nM. `Nc1nccc(COc2nsnc2N2CCN(C(=O)Nc3cccc(C(F)(F)F)c3)CC2)n1` [Example 231, 4-(4-{[(2-aminopyrimidin-4-yl)methyl]oxy}-1,2,5-thiadiazol-3-yl)-N-[3-(trifluoromethyl)phenyl]piperazine-1-carboxamide] had a half-maximal inhibitory concentration (IC50) of less than 50 nM.

On to `Nc1nccc(COc2nsnc2N2CCN(C(=O)Nc3cc(C(F)(F)F)ccc3F)CC2)n1` [Example 232, 4-(4-{[(2-aminopyrimidin-4-yl)methyl]oxy}-1,2,5-thiadiazol-3-yl)-N-[2-fluoro-5-(trifluoromethyl)phenyl]piperazine-1-carboxamide], for which the IC50 was in the range of 50 to 1000 nM.

`CN1CCN(CC(=O)Nc2cc(COc3cccnc3N3CCN(C(=O)Nc4cc(Cl)cc(C(F)(F)F)c4)CC3)ccn2)CC1` [Example 233, N-[3-chloro-5-(trifluoromethyl)phenyl]-4-(3-{[(2-{[(4-methylpiperazin-1-yl)acetyl]amino}pyridin-4-yl)methyl]oxy}pyridin-2-yl)piperazine-1-carboxamide]: the half-inhibitory concentration (IC50) was less than 50 nM. Compound `Nc1nccc(COc2nccnc2N2CCN(C(=O)Nc3cc(Cl)cc(C(F)(F)F)c3)CC2)n1` [Example 234, 4-(3-{[(2-aminopyrimidin-4-yl)methyl]oxy}pyrazin-2-yl)-N-[3-chloro-5-(trifluoromethyl)phenyl]piperazine-1-carboxamide] showed a concentration for half-maximal inhibition (IC50) of less than 50 nM. `Nc1nccc(COc2cccnc2N2CCN(C(=O)Nc3cc(Cl)cc(C(F)(F)F)c3)CC2)n1` [Example 235, 4-(3-{[(2-aminopyrimidin-4-yl)methyl]oxy}pyridin-2-yl)-N-[3-chloro-5-(trifluoromethyl)phenyl]piperazine-1-carboxamide] displayed a 50% inhibitory concentration (IC50) of less than 50 nM. For `CCc1cc(Br)cc(NC(=O)N2CCN(c3nccnc3OCc3ccnc(N)n3)CC2)c1` [Example 236, 4-(3-{[(2-aminopyrimidin-4-yl)methyl]oxy}pyrazin-2-yl)-N-(3-bromo-5-ethylphenyl)piperazine-1-carboxamide], the concentration for half-maximal inhibition (IC50) was less than 50 nM.

`CCc1cccc(NC(=O)N2CCN(c3nc(Cl)ccc3OCc3ccnc(N)n3)CC2)c1` [Example 237, 4-(3-{[(2-aminopyrimidin-4-yl)methyl]oxy}-6-chloropyridin-2-yl)-N-(3-ethylphenyl)piperazine-1-carboxamide]: the IC50 is less than 50 nM. For `CCc1cc(Br)cc(NC(=O)N2CCN(c3nsnc3OCc3ccnc(N)n3)CC2)c1` [Example 238, 4-(4-{[(2-aminopyrimidin-4-yl)methyl]oxy}-1,2,5-thiadiazol-3-yl)-N-(3-bromo-5-ethylphenyl)piperazine-1-carboxamide] the value was less than 50 nM; for `Nc1nccc(COc2nsnc2N2CCN(C(=O)Nc3cc(F)cc(C(F)(F)F)c3)CC2)n1` [Example 239, 4-(4-{[(2-aminopyrimidin-4-yl)methyl]oxy}-1,2,5-thiadiazol-3-yl)-N-[3-fluoro-5-(trifluoromethyl)phenyl]piperazine-1-carboxamide], less than 50 nM. Compound `Nc1nccc(COc2nsnc2N2CCN(C(=O)Nc3cc(Cl)cc(C(F)(F)F)c3)CC2)n1` [Example 240, 4-(4-{[(2-aminopyrimidin-4-yl)methyl]oxy}-1,2,5-thiadiazol-3-yl)-N-[3-chloro-5-(trifluoromethyl)phenyl]piperazine-1-carboxamide] showed a concentration for half-maximal inhibition (IC50) of less than 50 nM. `CCc1cc(NC(=O)N2CCN(c3nccnc3OCc3ccnc(N)n3)CC2)ccc1F` [Example 241, 4-(3-{[(2-aminopyrimidin-4-yl)methyl]oxy}pyrazin-2-yl)-N-(3-ethyl-4-fluorophenyl)piperazine-1-carboxamide] had a 50% inhibitory concentration (IC50) of less than 50 nM.

For `CCc1cc(CC)cc(NC(=O)N2CCN(c3nsnc3OCc3ccnc(N)n3)CC2)c1` [Example 242, 4-(4-{[(2-aminopyrimidin-4-yl)methyl]oxy}-1,2,5-thiadiazol-3-yl)-N-(3,5-diethylphenyl)piperazine-1-carboxamide], the 50% inhibitory concentration (IC50) was less than 50 nM. `CN1CCN(CC(=O)Nc2cc(COc3cccnc3N3CCN(C(=O)Nc4cc(C(F)(F)F)cc(Cl)c4F)CC3)ccn2)CC1` [Example 243, N-[3-chloro-2-fluoro-5-(trifluoromethyl)phenyl]-4-(3-{[(2-{[(4-methylpiperazin-1-yl)acetyl]amino}pyridin-4-yl)methyl]oxy}pyridin-2-yl)piperazine-1-carboxamide] displayed a concentration for half-maximal inhibition (IC50) of less than 50 nM. In the case of `Nc1nccc(COc2ccc(Cl)nc2N2CCN(C(=O)Nc3cc(C(F)(F)F)cc(C(F)(F)F)c3)CC2)n1` [Example 244, 4-(3-{[(2-aminopyrimidin-4-yl)methyl]oxy}-6-chloropyridin-2-yl)-N-[3,5-bis(trifluoromethyl)phenyl]piperazine-1-carboxamide], the IC50 was less than 50 nM. For `CCc1cccc(NC(=O)N2CCN(c3ncccc3OC(C)c3ccnc(N)n3)CC2)c1` (stereo not shown) [Example 245, 4-(3-{[1-(2-aminopyrimidin-4-yl)ethyl]oxy}pyridin-2-yl)-N-(3-ethylphenyl)piperazine-1-carboxamide] the value was less than 50 nM. `CCc1ccc(F)c(NC(=O)N2CCN(c3nc(Cl)ccc3OCc3ccnc(N)n3)CC2)c1` [Example 246, 4-(3-{[(2-aminopyrimidin-4-yl)methyl]oxy}-6-chloropyridin-2-yl)-N-(5-ethyl-2-fluorophenyl)piperazine-1-carboxamide] showed a half-maximal inhibitory concentration (IC50) of less than 50 nM. Then `CCc1cc(F)cc(NC(=O)N2CCN(c3ncccc3OCc3ccnc(N)n3)CC2)c1` [Example 247, 4-(3-{[(2-aminopyrimidin-4-yl)methyl]oxy}pyridin-2-yl)-N-(3-ethyl-5-fluorophenyl)piperazine-1-carboxamide], with less than 50 nM; and `Nc1nccc(COc2nsnc2N2CCN(C(=O)Nc3cc(C(F)(F)F)cc(Cl)c3F)CC2)n1` [Example 248, 4-(4-{[(2-aminopyrimidin-4-yl)methyl]oxy}-1,2,5-thiadiazol-3-yl)-N-[3-chloro-2-fluoro-5-(trifluoromethyl)phenyl]piperazine-1-carboxamide], with less than 50 nM; and `Nc1nccc(COc2cccnc2N2CCN(C(=O)Nc3cc(C(F)(F)F)cc(Cl)c3F)CC2)n1` [Example 249, 4-(3-{[(2-aminopyrimidin-4-yl)methyl]oxy}pyridin-2-yl)-N-[3-chloro-2-fluoro-5-(trifluoromethyl)phenyl]piperazine-1-carboxamide], with less than 50 nM.

Consider `CN(C(=O)N1CCN(c2ncccc2OCc2ccnc(N)n2)CC1)c1cc(C(F)(F)F)cc(C(F)(F)F)c1` [Example 250, 4-(3-{[(2-aminopyrimidin-4-yl)methyl]oxy}pyridin-2-yl)-N-[3,5-bis(trifluoromethyl)phenyl]-N-methylpiperazine-1-carboxamide], for which the IC50 was less than 50 nM.
